Results: US20200017549A1, “NOVEL a4B7 PEPTIDE ANTAGONISTS” (Protagonist Therapeutics, Inc., priority 2013, published 2020)
Bridge positions count the residues as written; N and C are the ends. Square brackets hold non-standard residues; d marks the D form. Peptide text beside a SMILES is read from it. NMeR = CN[C@@H](CCCNC(=N)N)C(=O)O; Pen = CC(C)(S)[C@H](N)C(=O)O

Experiment: Simulated Intestinal Fluid (SIF) Stability Assay
Type: in vitro ADME
Details: for stability in simulated intestinal fluids (SIF): Cys substituted with Pen, compared to SEQ ID NO: 46 with Cys
Procedure: Simulated Intestinal Fluid (SIF) Stability Assay
Studies were carried out in simulated intestinal fluid (SIF) to evaluate gastric stability of the peptide molecules of the instant invention. SIF was prepared by adding 6.8 g of monobasic potassium phosphate and 10.0 g of pancreatin to 1.0 L of water. After dissolution, the pH was adjusted to 6.8 using NaOH. DMSO stocks (2 mM) were first prepared for the test compounds. Aliquots of the DMSO solutions were dosed into 6 individual tubes, each containing 0.5 mL of SIF, which had been pre-warmed to 37° C.
The final test compound concentration was 20 μM. The vials were kept in a benchtop Thermomixer® for the duration of the experiment. At each time point (0, 5, 10, 20, 40, and 60 minutes), 1.0 mL of acetonitrile containing 1% formic acid was added to one vial to terminate the reaction. Samples were stored at 4° C. until the end of the experiment. After the final timepoint was sampled, the tubes were mixed and then centrifuged at 3,000 rpm for 10 minutes. Aliquots of the supernatant were removed, diluted 1:1 into distilled water containing internal standard, and analyzed by LCMS/MS. Percent remaining at each time point was calculated based on the peak area response ratio of test to compound to internal standard. Time 0 was set to 100%, and all later time points were calculated relative to time 0. Half-lives were calculated by fitting to a first-order exponential decay equation using GraphPad. A small sampling of the results of these studies is provided and discussed in connection FIG. 3, above.

## CC(=O)N[C@H]1CSSC[C@@H](C(N)=O)NC(=O)[C@H](CC(C)C)NC(=O)[C@H]([C@@H](C)O)NC(=O)[C@H](CC(=O)O)NC(=O)[C@H](CO)NC(=O)[C@H](CCCNC(=N)N)N(C)C1=O [SEQ ID NO: 46] (Ac-C[NMeR]SDTLC-NH2; disulfide 1-7)
Simulated intestinal fluid, pH 6.8, 37° C., N-Me-Arg substituted versus non-methylated variation
  half-life in SIF: increased half-life substantially

## CC(=O)N[C@H]1CSSC(C)(C)[C@@H](C(=O)N[C@H](CCCCN)C(N)=O)NC(=O)[C@H](CC(C)C)NC(=O)[C@H]([C@@H](C)O)NC(=O)[C@H](CC(=O)O)NC(=O)[C@H](CO)NC(=O)[C@H](CCCNC(=N)N)N(C)C1=O [SEQ ID NO: 55] (Ac-C[NMeR]SDTL[Pen][dK]-NH2; disulfide 1-7)
  stability in simulated intestinal fluids (SIF): increased stability significantly

## CC(=O)N[C@H]1CSSC(C)(C)[C@@H](C(=O)N[C@@H](CCC(=O)O)C(=O)N[C@H](CCCCN)C(N)=O)NC(=O)[C@H](CC(C)C)NC(=O)[C@H]([C@@H](C)O)NC(=O)[C@H](CC(=O)O)NC(=O)[C@H](CO)NC(=O)[C@H](CCCNC(=N)N)N(C)C1=O [SEQ ID NO: 74] (Ac-C[NMeR]SDTL[Pen]E[dK]-NH2; disulfide 1-7)
  stability in simulated intestinal fluids (SIF): increased stability significantly

## CC(=O)N[C@@H]1C(=O)N(C)[C@@H](CCCNC(=N)N)C(=O)N[C@@H](CO)C(=O)N[C@@H](CC(=O)O)C(=O)N[C@@H]([C@@H](C)O)C(=O)N[C@@H](CC(C)C)C(=O)N[C@H](C(=O)N[C@H](CCCCN)C(N)=O)C(C)(C)SSC1(C)C [SEQ ID NO: 93] (Ac-[Pen][NMeR]SDTL[Pen][dK]-NH2; disulfide 1-7)
  stability in simulated intestinal fluids (SIF): increased stability significantly
